Results from patent US20250019644A1, “Quantitatively Mapping Amino Acid Properties (QMAP) Cell Culture Media” (UNIVERSITY OF IOWA RESEARCH FOUNDATION, priority 2023, published 2025).

Key:
Assay type in all cases: cell-based, human
HCT116 cells [1] = assay: Metabolic profiling of tryptophan metabolite-treated cells, LC-MS; conditions: 6 hours, QMAP
Experimental: […] Cell plates were lyophilized overnight before metabolite extraction. To extract metabolites, 1 ml of an extraction buffer composed of 2:2:1 methanol/acetonitrile/water with internal standards at 1 μg/ml each (D4-Citric Acid, 13C5-Glutamine, 13C5-Glutamic Acid, 13C6-Lysine, 13C5-Methionine, 13C3-Serine, D4-Succinic Acid, 13C11-Tryptophan, and D8-Valine; Cambridge Isotope Laboratories) was added to the lyophilized cell samples. Cells were scraped for 20 seconds and collected into Eppendorf tubes, flash-frozen in liquid nitrogen, and sonicated for 10 minutes.
(§1) Samples were then placed on a rotating platform at −20° C. for 1 hour and centrifuged at 4° C. for 10 minutes at 21,000×g. 300 μL of the cleared metabolite extracts were transferred to fresh tubes for additional processing. An equal volume of each extract was pooled to serve as a quality control (QC) sample, which was analyzed at the beginning, end, and at a regular interval throughout an instrument run. Extraction buffer alone was analyzed as a processing blank sample. Metabolite extracts, the quality control sample, and the processing blank were evaporated to dryness using a speed-vacuum.
Dried extracts were reconstituted in 30 μL of acetonitrile/water (1:1, V/V), vortexed for 10 minutes, and incubated at −20° C. for 18 hours. Samples were then centrifuged at 4° C. for 2 minutes at 21,000×g and the supernatant was transferred to autosampler vials for analysis.
For LC chromatographic separation, 2 μL of reconstituted metabolite extracts, QC sample, and processing blank were run on a Millipore SeQuant ZIC-PHILIC (2.1×150 mm, 5 um particle size, Millipore Sigma #150460) column with a ZIC-PHILIC guard column (20×2.1 mm, Millipore Sigma #150437) attached to a Thermo Vanquish Flex UHPLC. The mobile phase comprised Buffer A [20 mM (NH4)2CO3, 0.1% NH4OH (v/v)] and Buffer B [acetonitrile]. The chromatographic gradient was run at a flow rate of 0.150 mL/min as follows: 0-20 min-linear gradient from 80 to 20% Buffer B; 20-20.5 min-linear gradient from 20 to 80% Buffer B; and 20.5-28 min-hold at 80% Buffer B. Data were acquired using a Thermo Q Exactive MS operated in full-scan, polarity-switching mode with a spray voltage set to 3.0 kV, the heated capillary held at 275° C., and the HESI probe held at 350° C. The sheath gas flow was set to 40 units, the auxiliary gas flow was set to 15 units, and the sweep gas flow was set to 1 unit. MS data acquisition was performed with polarity switching in a range of m/z 70-1,000, with the resolution set at 70,000, the AGC target at 10e6, and the maximum injection time at 200 ms. The QC sample was analyzed at the beginning and end of the LC-MS run and after every 10 samples.
(§2) Acquired LC-MS and GC-MS data were processed using the Thermo Scientific TraceFinder software. Targeted metabolites were identified by matching accurate mass and retention times to the University of Iowa Metabolomics Core Facility's in-house library of confirmed standards. After peak area integration by TraceFinder, NOREVA software was applied for signal drift correction on a metabolite-to-metabolite basis using the pooled QC sample that had been analyzed throughout the instrument run. Within individual samples, Post-NOREVA metabolite levels were divided by the total metabolite load (sum of all metabolite values) to equally weight individual metabolites for comparison across samples.

U2OS = assay: CellTiter-Glo Luminescent Cell Viability Assay; conditions: 2-fold dilution series, 48 hours, QMAP
Experimental: (§3) HT29, 293T, U2OS, and 3T3-LI cells were plated on an opaque 96-well plate in 1:1 DMEM. […] At the appropriate time point, 100 μl of CellTiter-Glo reagent (Promega #G7570) was added to each well. The plate was gently mixed for 2 minutes to induce lysis, incubated at room-temperature for 10 minutes, and then luminescence was measured.
To test whether tryptophan inhibition of growth applied to other cell lines and persisted in conventional cell culture media, two human cancer cell lines (HT29, U2OS), a transformed human embryonic kidney cell line (293T), and a mouse, fibroblast-like cell line (3T3-L1) were grown in DMEM for 24 hours and then treated with 2 mM tryptophan or vehicle. […]

293T = assay: CellTiter-Glo Luminescent Cell Viability Assay; conditions: 2-fold dilution series, 48 hours, QMAP
Experimental: as §3
To test whether tryptophan inhibition of growth applied to other cell lines and persisted in conventional cell culture media, two human cancer cell lines (HT29, U2OS), a transformed human embryonic kidney cell line (293T), and a mouse, fibroblast-like cell line (3T3-L1) were grown in DMEM for 24 hours and then treated with 2 mM tryptophan or vehicle. After 24 hours, cells were assayed by CellTiter-Glo, which indicates cell viability by measuring ATP production.

HCT116 cells [2] = assay: Activity metabolomics screen of tryptophan metabolites, GC-MS profiling; conditions: 2 mM, 6 hours, QMAP
Experimental: 6-well plates were treated for 6 hours with 2 mM of the indicated tryptophan metabolite for 6 hours before media was quickly removed, and plates were washed 2× with ice-cold PBS and 2× with ice-cold water before being snap frozen with liquid nitrogen. Cell plates were lyophilized overnight before metabolite extraction. To extract metabolites, 1 ml of an extraction buffer composed of 2:2:1 methanol/acetonitrile/water with internal standards at 1 μg/ml each (D4-Citric Acid, 13C5-Glutamine, 13C5-Glutamic Acid, 13C6-Lysine, 13C5-Methionine, 13C3-Serine, D4-Succinic Acid, 13C11-Tryptophan, and D8-Valine; Cambridge Isotope Laboratories) was added to the lyophilized cell samples. Cells were scraped for 20 seconds and collected into Eppendorf tubes, flash-frozen in liquid nitrogen, and sonicated for 10 minutes.
as §1
The dried metabolite extracts, QC sample, and processing blank sample, were derivatized using methoxyamine hydrochloride (MOX) and N,O-Bis (trimethylsilyl) trifluoroacetamide (TMS) (Sigma). Briefly, dried extracts were reconstituted in 30 μL of 11.4 mg/ml MOX in anhydrous pyridine (VWR), vortexed for 10 minutes, and heated at 60° C. for 1 hour. Next, 20 μL TMS was added to each reconstituted extract, vortexed for 1 minute, and heated at 60° C. for 30 min. The derivatized metabolite extracts, blanks, and QC were immediately analyzed using GC/MS.
GC chromatographic separation was conducted on a Thermo Trace 1300 GC with a TraceGold TG-5SilMS column (0.25 μM film thickness; 0.25 mm ID; 30 m length). An injection volume of 1 μL was used for all samples, blanks, and QCs. The GC was operated in split mode with the following settings: 20:1 split ratio; split flow: […], purge flow: 5 mL/min, Carrier mode: Constant Flow, Carrier flow rate: 1.2 mL/min). The GC inlet temperature was 250° C. The GC oven temperature gradient was as follows: 80° C. for 3 min, ramped at 20° C./min to a maximum temperature of 280° C., which was held for 8 min. The injection syringe was washed 3 times with pyridine between each sample. Metabolites were detected using a Thermo ISQ single quadrupole mass spectrometer. The data was acquired from 3.90 to 21.00 min in EI mode (70eV) by single ion monitoring (SIM).
as §2

HCT116 cells [3] = assay: Screen 2: metabolic profiling with unlabeled amino acids (LC-MS); conditions: 6 hours; for increase in intracellular relative abundance of the amino acid used for treatment: 2 mM dose, relative to untreated cells
Experimental: Media was changed to QMAP plus individual amino acid treatments at the start of the experiment. 200 mM amino acid stocks were used to make the QMAP+individual amino acid treatment medias that were placed in the tissue culture incubator for 30-45 minutes prior to the start of the dosing for equilibration of media bicarbonate with incubator CO2. For metabolomic profiling experiments, cells were treated with additional amino acid doses of 0.5, 1 and 2 mM, and 1 mM was used for stable isotope tracing experiments. To minimize systematic error, each amino acid dose was added as a batch (20 amino acids+vehicle control) such that each well of each plate contained a different amino acid. The process was repeated for the other two concentrations of amino acids on the next plates to make set. This was repeated four more times to achieve the sample size of 5 replicates for each of the 3 doses of amino acids. Each plate was then incubated for 6 hours in the tissue culture incubator before being rapidly washed twice with sterile water and snap frozen on liquid nitrogen before being stored at −80° C. The next day, the plates were lyophilized for 90 minutes and then stored at −80° C.
Extraction buffer was prepared by adding 2:2:1 methanol: acetonitrile: water. For profiling, the following internal standards (Cambridge Isotope Laboratories) were added at 1 μg/mL each: L-Valine-D8, L-Aspartate (^13C4, D3, ^15N) and Succinate (13C4D4). 6-well plates were removed from storage at −80° C. and 1 ml of ice-cold extraction buffer was added. Plates were incubated at −20° C. for 5 minutes, scraped, transferred to microcentrifuge tubes and frozen in liquid nitrogen. Tubes were then placed into a sonicating water bath for 10 minutes and rotated at −20° C. for 1 hour before being centrifuged at 4° C. for 10 minutes at 21,000×g. […] of extract was dried down completely using a speed-vacuum (˜90 min), dissolved in […] of acetonitrile: water (1:1), vortexed for 10 min, and stored overnight at −20° C. to allow protein precipitation. Samples were then centrifuged at 4° C. for 10 minutes at 21,000×g and the supernatants were transferred into autosampler vials for analysis. For the QCs, […] of each extract was pooled, at the step prior to drying down, mixed and dried in […] amounts alongside the samples. Once dried, QCs were processed with the samples but recombined prior to being aliquoted into autosampler vials. All samples were then frozen at −80° C., and only one set of samples, which included a QC aliquot, was thawed, vortexed and placed into the instrument.
The sheath gas flow was set to 40 units, the auxiliary gas flow was set to 15 units and the sweep gas flow was set to 1 unit. […] For tracing, […] of sample was injected twice in either positive or negative mode to maximize detection efficiency and minimize metabolite crowding using the Sim-mode.
LC-MS data was processed using the Thermo Scientific TraceFinder 5.1 software.
The three cell lines were then treated with 0.5, 1, and 2 mM of individual, unlabeled amino acids, and metabolic profiling was performed to determine how individual amino acids quantitatively altered metabolite abundance (Screen 2).

IDO1 mRNA = assay: Quantitative PCR of IDO1 mRNA; conditions: 50 ng/μL for 24 hours, HCT116

Molecule: Nc1c(O)cccc1C(=O)CC(N)C(=O)O (stereo not shown) [3HK, 3-hydroxykynurenine]
- increase of xanthommatin (HCT116 cells [1]; 2 mM dose): ~70 fold
- oxidized glutathione (GSSG) level (HCT116 cells [1]; 2 mM): significantly decreased
- reduced glutathione (GSH) level (HCT116 cells [1]; 2 mM): significantly decreased
- cell viability (U2OS): dose-dependent decrease
- cell viability (293T): dose-dependent decrease
- aconitate level (HCT116 cells [2]): significantly increased
- citrate level (HCT116 cells [2]): significantly increased
- disruption of TCA cycle metabolites (HCT116 cells [2]): more potent disruption than the other tryptophan metabolites
- distal TCA cycle metabolites (HCT116 cells [2]): drastically and significantly decreased
- glucose 6-phosphate level (HCT116 cells [2]): Significantly increased
- ribose 5-phosphate level (HCT116 cells [2]): Significantly increased
- ribulose 5-phosphate level (HCT116 cells [2]): Significantly increased

Molecule: NCC(=O)O [glycine, L-glycine]
- serine level (HCT116 cells [3]; 0.5, 1, 2 mM, HCT116 cells): proportional, dose-dependent increase

Molecule: N[C@@H](CO)C(=O)O [serine, L-serine]
- glycine levels (HCT116 cells [3]; 0.5, 1, 2 mM, HCT116 cells): did not increase

Molecule: N[C@@H](CCC(=O)O)C(=O)O [glutamate, L-glutamic acid]
- increase in intracellular relative abundance of the amino acid used for treatment (HCT116 cells [3]; HCT116 cells): 1.25 fold
- TCA cycle intermediates (HCT116 cells [3]; 0.5, 1, 2 mM): increased

Molecule: NC(=O)CC[C@H](N)C(=O)O [glutamine, L-glutamine]
- increase in intracellular relative abundance of the amino acid used for treatment (HCT116 cells [3]; HCT116 cells): ~80 fold
- TCA cycle intermediates (HCT116 cells [3]; 0.5, 1, 2 mM): increased

B1: IFN-γ: the known IDO potentiator IFN-γ (protein, UniProt P01579 24-161, looked up)
Interferon gamma: QDPYVKEAENLKKYFNAGHSDVADNGTLFLGILKNWKEESDRKIMQSQIVSFYFKLFKNFKDDQSIQKSVETIKEDMNVKFFNSNKKKRDDFEKLTNYSVTDLNVQRKAIHELIQVMAELSPAAKTGKRKRSQMLFRG
- IDO1 mRNA (IDO1 mRNA): increased
